Measurements as given in PubChem BioAssay AID256 (DTP/NCI, 2004).
Where “and” joins values, the source holds several entries; their conditions need not be identical. Equal values may be shown once. Toxic doses and inconclusive results are not listed. The calls were made as follows: active = survival T/C of 150% or more; inactive = T/C below 125% in these data.

Test system: CD2F1 mice, L1210 leukemia ip, survival T/C
Assay: NCI In Vivo Anticancer Drug Screen. Data for tumor model L1210 Leukemia (intraperitoneal) in CD2F1 (CDF1) mice
Settings: endpoint: mean survival time, higher = longer survival
How it was run: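 Transplantable tumor in mice; compound-treated vs vehicle-treated groups. Read-out = treated/control ratio of the measured endpoint.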

[1] = dose: 100.0 mg/kg/injection, schedule: Q04DX003 (ip), vehicle: saline with Tween-80
[2] = dose: 200.0 mg/kg/injection, schedule: Q04DX003 (ip), vehicle: saline with Tween-80
[3] = dose: 400.0 mg/kg/injection, schedule: Q04DX003 (ip), vehicle: saline with Tween-80
[4] = dose: 75.0 mg/kg/injection, schedule: Q01DX001 (ip), vehicle: saline
[5] = dose: 150.0 mg/kg/injection, schedule: Q01DX001 (ip), vehicle: saline
[6] = dose: 100.0 mg/kg/injection, schedule: Q01DX001 (ip), vehicle: saline
[7] = dose: 100.0 mg/kg/injection, schedule: Q01DX001 (ip), vehicle: saline with Tween-80
[8] = dose: 100.0 mg/kg/injection, schedule: Q04DX002 (ip), vehicle: saline with Tween-80
[9] = dose: 200.0 mg/kg/injection, schedule: Q01DX001 (ip), vehicle: saline with Tween-80
[10] = dose: 200.0 mg/kg/injection, schedule: Q04DX002 (ip), vehicle: saline with Tween-80
[11] = dose: 400.0 mg/kg/injection, schedule: Q04DX002 (ip), vehicle: saline with Tween-80

Measured: T/C

NC(=S)NN=C1CCC(=NNC(N)=S)CC1
inactive: dose: 50.0 mg/kg/injection, schedule: Q01DX009 (ip), vehicle: other 94 % of control | dose: 100.0 mg/kg/injection, schedule: Q01DX009 (ip), vehicle: other 91 % of control | dose: 250.0 mg/kg/injection, schedule: Q01DX009 (ip), vehicle: other 89 % of control

Clc1ccc2c(NCc3ccncc3)ccnc2c1
inactive: [1] 96 % of control | [2] 95 % of control | [3] 96 % of control

O=C(OCCCCI)c1ccccc1
inactive: [4] 97 % of control | [5] 102 % of control | dose: 300.0 mg/kg/injection, schedule: Q01DX001 (ip), vehicle: saline 97 % of control

O=c1ccn(C2OC(CO)C(O)C2O)c(=O)[nH]1 (configuration not stated)
inactive: dose: 12.5 mg/kg/injection, schedule: Q01DX005 (ip), vehicle: Klucel (hydroxypropylcellulose) (HPC) 103 % of control | dose: 25.0 mg/kg/injection, schedule: Q01DX005 (ip), vehicle: Klucel (hydroxypropylcellulose) (HPC) 101 % of control | dose: 50.0 mg/kg/injection, schedule: Q01DX005 (ip), vehicle: Klucel (hydroxypropylcellulose) (HPC) 101 % of control | dose: 100.0 mg/kg/injection, schedule: Q01DX005 (ip), vehicle: Klucel (hydroxypropylcellulose) (HPC) 110 % of control | dose: 200.0 mg/kg/injection, schedule: Q01DX005 (ip), vehicle: Klucel (hydroxypropylcellulose) (HPC) 105 % of control

CC(C)N1CCc2cc3c(cc2C1)OCO3
inactive: [4] 100 % of control | [6] 100 % of control

CN(CCO)N=Nc1ccccc1
inactive: [4] 102 % of control | [5] 105 % of control

Cc1cc(C)c(S(=O)(=O)F)cc1C(=O)O
inactive: [7] 101 % of control | dose: 100.0 mg/kg/injection, schedule: Q01DX009 (ip), vehicle: saline with Tween-80 96 % of control and 100 % of control | [8] 92 % of control and 104 % of control | [1] 107 % of control | [9] 95 % of control | dose: 200.0 mg/kg/injection, schedule: Q01DX009 (ip), vehicle: saline with Tween-80 93 % of control and 94 % of control | [10] 96 % of control and 104 % of control | [2] 102 % of control | dose: 400.0 mg/kg/injection, schedule: Q01DX009 (ip), vehicle: saline with Tween-80 96 % of control | [11] 94 % of control and 102 % of control | [3] 100 % of control

S=[As]c1ccccc1 (configuration not stated)
inactive: [6] 100 % of control | dose: 200.0 mg/kg/injection, schedule: Q01DX001 (ip), vehicle: saline 97 % of control | dose: 400.0 mg/kg/injection, schedule: Q01DX001 (ip), vehicle: saline 107 % of control

O=c1[nH]cc(S)c(=O)[nH]1
inactive: [8] 106 % of control | [10] 97 % of control | [11] 106 % of control

O=C(O)CC/C(=N\O)c1cccc([N+](=O)[O-])c1
inactive: [1] 102 % of control | [2] 102 % of control | [3] 98 % of control

OC1(c2ccccc2)CCN(C/C=C/c2ccccc2)CC1
inactive: dose: 25.0 mg/kg/injection, schedule: Q01DX001 (ip), vehicle: saline with Tween-80 102 % of control | dose: 50.0 mg/kg/injection, schedule: Q01DX001 (ip), vehicle: saline with Tween-80 101 % of control | [7] 102 % of control and 103 % of control

CC(C)(SCC(N)C(=O)O)c1ccc(-c2ccccc2)cc1 (configuration not stated)
inactive: [7] 88 % of control | [9] 86 % of control | dose: 400.0 mg/kg/injection, schedule: Q01DX001 (ip), vehicle: saline with Tween-80 91 % of control

Cc1cccc(OCC2=NCCN2)c1C
inactive: dose: 6.25 mg/kg/injection, schedule: Q04DX002 (ip), vehicle: saline with Tween-80 102 % of control | dose: 12.5 mg/kg/injection, schedule: Q04DX002 (ip), vehicle: saline with Tween-80 109 % of control | dose: 25.0 mg/kg/injection, schedule: Q04DX002 (ip), vehicle: saline with Tween-80 97 % of control
